# Read-outs that look alike come from different tables or passages of the source.
# Columns and labels:
# [1] = tested on: E. coli KA797 cells carrying BlaC position 105 library; type: cell-based, Escherichia coli; conditions: ampicillin; for Fi AMP AVG: average of replicates
# [2] = tested on: E. coli KA797 cells carrying pUK21 vector without the β-lactamase gene; test: microbe, parasite or virus in culture; type: cell-based; conditions: Escherichia coli; antibiotic alone; pUK21 without β-lactamase gene; read-out: MIC
# [3] = tested on: E. coli KA797 cells carrying NmcA position 105 library; type: cell-based
# [4] = tested on: E. coli KA797 cells carrying pUK21 with CTX-M-14 WT (Tat); test: microbe, parasite or virus in culture; type: cell-based; conditions: Escherichia coli, antibiotic alone
# [5] = tested on: E. coli KA797 cells carrying pUK21 with KPC-2 (Tat); test: microbe, parasite or virus in culture; type: cell-based; conditions: Escherichia coli, antibiotic alone
# [6] = tested on: E. coli KA797 cells carrying CTX-M-14 position 105 library; type: cell-based
# [7] = tested on: E. coli KA797 cells carrying pUK21 with BlaC WT (Tat); test: microbe, parasite or virus in culture; type: cell-based; conditions: Escherichia coli, antibiotic alone
compound,measurement,setting,value
CC1(C)S[C@@H]2[C@H](NC(=O)[C@H](N)c3ccccc3)C(=O)N2[C@H]1C(=O)O [ampicillin],Significance (Fi AMP AVG),[1]; AA 105 Ala,+
same,Fi AMP AVG,[1]; AA 105 Ala,0.883
same,Fi AMP 1,"[1]; AA 105 Ala, replicate 1",0.406
same,Fi AMP 2,"[1]; AA 105 Ala, replicate 2",1.100
same,Fi AMP 3,"[1]; AA 105 Ala, replicate 3",1.141
same,Fi AMP AVG,[1]; AA 105 Arg,0.475
same,Fi AMP 1,"[1]; AA 105 Arg, replicate 1",0.818
same,Fi AMP 2,"[1]; AA 105 Arg, replicate 2",-0.366
same,Fi AMP 3,"[1]; AA 105 Arg, replicate 3",0.972
same,Fi AMP AVG,[1]; AA 105 Asn,-0.118
same,Fi AMP 1,"[1]; AA 105 Asn, replicate 1",-0.339
same,Fi AMP 2,"[1]; AA 105 Asn, replicate 2",-0.227
same,Fi AMP 3,"[1]; AA 105 Asn, replicate 3",0.211
same,Fi AMP AVG,[1]; AA 105 Asp,0.229
same,Fi AMP 1,"[1]; AA 105 Asp, replicate 1",0.470
same,Fi AMP 3,"[1]; AA 105 Asp, replicate 3",-0.012
same,Significance (Fi AMP AVG),[1]; AA 105 Cys,+
same,Fi AMP AVG,[1]; AA 105 Cys,0.500
same,Fi AMP 1,"[1]; AA 105 Cys, replicate 1",0.488
same,Fi AMP 2,"[1]; AA 105 Cys, replicate 2",0.257
same,Fi AMP 3,"[1]; AA 105 Cys, replicate 3",0.755
same,Fi AMP AVG,[1]; AA 105 Gln,0.694
same,Fi AMP 3,"[1]; AA 105 Gln, replicate 3",0.694
same,Fi AMP AVG,[1]; AA 105 Glu,0.120
same,Fi AMP 1,"[1]; AA 105 Glu, replicate 1",-0.486
same,Fi AMP 2,"[1]; AA 105 Glu, replicate 2",1.183
same,Fi AMP 3,"[1]; AA 105 Glu, replicate 3",-0.337
same,Fi AMP AVG,[1]; AA 105 Gly,0.342
same,Fi AMP 1,"[1]; AA 105 Gly, replicate 1",0.540
same,Fi AMP 2,"[1]; AA 105 Gly, replicate 2",-0.133
same,Fi AMP 3,"[1]; AA 105 Gly, replicate 3",0.619
same,Significance (Fi AMP AVG),[1]; AA 105 His,+
same,Fi AMP AVG,[1]; AA 105 His,2.187
same,Fi AMP 1,"[1]; AA 105 His, replicate 1",2.095
same,Fi AMP 2,"[1]; AA 105 His, replicate 2",2.262
same,Fi AMP 3,"[1]; AA 105 His, replicate 3",2.205
same,Fi AMP AVG,[1]; AA 105 Ile (WT),0.000
same,Fi AMP 1,"[1]; AA 105 Ile (WT), replicate 1",0.000
same,Fi AMP 2,"[1]; AA 105 Ile (WT), replicate 2",0.000
same,Fi AMP 3,"[1]; AA 105 Ile (WT), replicate 3",0.000
same,Fi AMP AVG,[1]; AA 105 Leu,0.259
same,Fi AMP 1,"[1]; AA 105 Leu, replicate 1",0.406
same,Fi AMP 2,"[1]; AA 105 Leu, replicate 2",-0.033
same,Fi AMP 3,"[1]; AA 105 Leu, replicate 3",0.405
same,Fi AMP AVG,[1]; AA 105 Lys,0.741
same,Fi AMP 1,"[1]; AA 105 Lys, replicate 1",0.741
same,Fi AMP AVG,[1]; AA 105 Met,0.434
same,Fi AMP 1,"[1]; AA 105 Met, replicate 1",0.165
same,Fi AMP 2,"[1]; AA 105 Met, replicate 2",0.714
same,Fi AMP 3,"[1]; AA 105 Met, replicate 3",0.423
same,Significance (Fi AMP AVG),[1]; AA 105 Phe,+
same,Fi AMP AVG,[1]; AA 105 Phe,3.116
same,Fi AMP 1,"[1]; AA 105 Phe, replicate 1",3.353
same,Fi AMP 2,"[1]; AA 105 Phe, replicate 2",2.935
same,Fi AMP 3,"[1]; AA 105 Phe, replicate 3",3.061
same,Fi AMP AVG,[1]; AA 105 Pro,0.423
same,Fi AMP 1,"[1]; AA 105 Pro, replicate 1",0.675
same,Fi AMP 2,"[1]; AA 105 Pro, replicate 2",0.012
same,Fi AMP 3,"[1]; AA 105 Pro, replicate 3",0.583
same,Fi AMP AVG,[1]; AA 105 Ser,0.267
same,Fi AMP 1,"[1]; AA 105 Ser, replicate 1",1.268
same,Fi AMP 2,"[1]; AA 105 Ser, replicate 2",-0.404
same,Fi AMP 3,"[1]; AA 105 Ser, replicate 3",-0.062
same,Fi AMP AVG,[1]; AA 105 Thr,0.222
same,Fi AMP 1,"[1]; AA 105 Thr, replicate 1",-0.283
same,Fi AMP 2,"[1]; AA 105 Thr, replicate 2",0.921
same,Fi AMP 3,"[1]; AA 105 Thr, replicate 3",0.029
same,Significance (Fi AMP AVG),[1]; AA 105 Trp,+
same,Fi AMP AVG,[1]; AA 105 Trp,3.126
same,Fi AMP 1,"[1]; AA 105 Trp, replicate 1",3.329
same,Fi AMP 2,"[1]; AA 105 Trp, replicate 2",2.872
same,Fi AMP 3,"[1]; AA 105 Trp, replicate 3",3.175
same,Significance (Fi AMP AVG),[1]; AA 105 Tyr,+
same,Fi AMP AVG,[1]; AA 105 Tyr,3.396
same,Fi AMP 1,"[1]; AA 105 Tyr, replicate 1",3.695
same,Fi AMP 2,"[1]; AA 105 Tyr, replicate 2",3.143
same,Fi AMP 3,"[1]; AA 105 Tyr, replicate 3",3.349
same,Fi AMP AVG,[1]; AA 105 Val,-0.310
same,Fi AMP 1,"[1]; AA 105 Val, replicate 1",-0.429
same,Fi AMP 3,"[1]; AA 105 Val, replicate 3",-0.191
same,WT abs Fi 1,"[1]; WT (Ile 105) absolute fitness, replicate 1",-1.907
same,WT abs Fi 2,"[1]; WT (Ile 105) absolute fitness, replicate 2",-1.350
same,WT abs Fi 3,"[1]; WT (Ile 105) absolute fitness, replicate 3",-1.353
same,MIC,[2],10 µg/mL
same,Fi AVG (average fitness of replicates),[3]; NmcA AA 105 Ala,-0.604
same,Significance of average fitness,[3]; NmcA AA 105 Ala,-
same,Fi AVG (average fitness of replicates),[3]; NmcA AA 105 Arg,-0.595
same,Significance of average fitness,[3]; NmcA AA 105 Arg,-
same,Fi AVG (average fitness of replicates),[3]; NmcA AA 105 Asn,-0.193
same,Significance of average fitness,[3]; NmcA AA 105 Asn,-
same,Fi AVG (average fitness of replicates),[3]; NmcA AA 105 Asp,-0.514
same,Significance of average fitness,[3]; NmcA AA 105 Asp,-
same,Fi AVG (average fitness of replicates),[3]; NmcA AA 105 Cys,-0.572
same,Significance of average fitness,[3]; NmcA AA 105 Cys,-
same,Fi AVG (average fitness of replicates),[3]; NmcA AA 105 Gln,-0.362
same,Significance of average fitness,[3]; NmcA AA 105 Gln,-
same,Fi AVG (average fitness of replicates),[3]; NmcA AA 105 Glu,-0.554
same,Significance of average fitness,[3]; NmcA AA 105 Glu,-
same,Fi AVG (average fitness of replicates),[3]; NmcA AA 105 Gly,-0.012
same,Fi AVG (average fitness of replicates),[3]; NmcA AA 105 His,0.000
same,Fi AVG (average fitness of replicates),[3]; NmcA AA 105 Ile,-0.668
same,Significance of average fitness,[3]; NmcA AA 105 Ile,-
same,Fi AVG (average fitness of replicates),[3]; NmcA AA 105 Leu,-0.515
same,Significance of average fitness,[3]; NmcA AA 105 Leu,-
same,Fi AVG (average fitness of replicates),[3]; NmcA AA 105 Lys,-0.761
same,Significance of average fitness,[3]; NmcA AA 105 Lys,-
same,Fi AVG (average fitness of replicates),[3]; NmcA AA 105 Met,-0.296
same,Significance of average fitness,[3]; NmcA AA 105 Met,-
same,Fi AVG (average fitness of replicates),[3]; NmcA AA 105 Phe,-0.065
same,Fi AVG (average fitness of replicates),[3]; NmcA AA 105 Pro,-0.462
same,Significance of average fitness,[3]; NmcA AA 105 Pro,-
same,Fi AVG (average fitness of replicates),[3]; NmcA AA 105 Ser,-0.413
same,Significance of average fitness,[3]; NmcA AA 105 Ser,-
same,Fi AVG (average fitness of replicates),[3]; NmcA AA 105 Thr,-0.905
same,Significance of average fitness,[3]; NmcA AA 105 Thr,-
same,Fi AVG (average fitness of replicates),[3]; NmcA AA 105 Trp,0.277
same,Significance of average fitness,[3]; NmcA AA 105 Trp,+
same,Fi AVG (average fitness of replicates),[3]; NmcA AA 105 Tyr,0.049
same,Fi AVG (average fitness of replicates),[3]; NmcA AA 105 Val,-0.608
same,Significance of average fitness,[3]; NmcA AA 105 Val,-
same,WT abs Fi 1 (absolute fitness),"[3]; NmcA WT, replicate 1",0.229
same,WT abs Fi 2 (absolute fitness),"[3]; NmcA WT, replicate 2",0.425
same,MIC,[4],1600 µg/mL
same,MIC,[5],200 µg/mL
same,Significance of average fitness,[6]; CTX-M-14 AA 105 Ala,-
same,Significance of average fitness,[6]; CTX-M-14 AA 105 Arg,-
same,Significance of average fitness,[6]; CTX-M-14 AA 105 Asn,-
same,Significance of average fitness,[6]; CTX-M-14 AA 105 Asp,-
same,Significance of average fitness,[6]; CTX-M-14 AA 105 Cys,-
same,Significance of average fitness,[6]; CTX-M-14 AA 105 Gln,-
same,Significance of average fitness,[6]; CTX-M-14 AA 105 Glu,-
same,Significance of average fitness,[6]; CTX-M-14 AA 105 Gly,-
same,Significance of average fitness,[6]; CTX-M-14 AA 105 His,-
same,Significance of average fitness,[6]; CTX-M-14 AA 105 Ile,-
same,Significance of average fitness,[6]; CTX-M-14 AA 105 Leu,-
same,Significance of average fitness,[6]; CTX-M-14 AA 105 Lys,-
same,Significance of average fitness,[6]; CTX-M-14 AA 105 Met,-
same,Significance of average fitness,[6]; CTX-M-14 AA 105 Pro,-
same,Significance of average fitness,[6]; CTX-M-14 AA 105 Ser,-
same,Significance of average fitness,[6]; CTX-M-14 AA 105 Thr,-
same,Significance of average fitness,[6]; CTX-M-14 AA 105 Val,-
same,"WT abs Fi 2 (absolute fitness of wild type, Replicate 2)",[6]; CTX-M-14 WT (Tyr 105),0.605
same,MIC,[7],50 µg/mL

# Reference: publication PMC12274840 (The Journal of Biological Chemistry, 2025)
